Reference: article PMC10517462, “Small molecule targeting of the p38/Mk2 stress signaling pathways to improve cancer treatment” (BMC Cancer, 2023)
Where two headings read alike, the source gives them in different places.

Assays:
[1] = tested on: NCI-H69 cells; assay: FACS-based cell cycle analysis; parameters: species or system human; settings: single treatment, increasing dose
Experimental: The cells were grown in 12 well plates (Scientific Laboratory Supplies Limited, UK) in RPMI 1640 (Gibco, UK) supplemented with 10% FBS (Autogen Bioclear, UK) and 10,000 U/ml penicillin and 10 mg/ml streptomycin (Sigma, UK) at 37 °C under 5% CO2 and treated with 10, 20, 50, 100 and 150 µM of DNA damaging agent etoposide (VP-16) (Sigma, UK) in the presence or absence of p38MAPK inhibitor SB203580 (Tocris Chemical Co., UK) or MK2 inhibitor MK2.III (Merck, UK) in concentrations of 0, 0.3125, 0.625, 1.25, 2.5, and 5.0 µM. Etoposide, SB203580 and MK2.III were all dissolved in 0.2% of DMSO before use. Cells treated only with the carrier molecule DMSO (0.2%) served as a control.
Viability analysis was performed by staining with the […], stoichiometric DNA stain DRAQ7 (640 or 633 nm excitation and 670 nm emission; Biostatus Limited). After 48-h treatment with DNA damaging agents and/or inhibitors, cells were washed once with RPMI 1640 and resuspended in 1 ml culture media at a concentration of less than 5 × 10^5/ ml. Cells were stained with 20 µM of DRAQ7 and incubated at 37 °C for 10 min before FACS Calibur cytometer analysis. Fluorescent signals were amplified using linear mode. Cell cycle analysis was performed either by staining DRAQ7 or Propidium Iodide (PI). Cells were stained with 20 µM of DRAQ7 and incubated at 37 °C for 10 min before analysis on a FACSCalibur cytometer. […]

[2] = tested on: NCI-H69 cells; assay: FACS-based (DRAQ7) viability assay; assay type: cell-based, human
Experimental: […] Etoposide, SB203580 and MK2.III were all dissolved in 0.2% of DMSO before use. Cells treated only with the carrier molecule DMSO (0.2%) served as a control.
Viability analysis was performed by staining with the […], stoichiometric DNA stain DRAQ7 (640 or 633 nm excitation and 670 nm emission; Biostatus Limited). After 48-h treatment with DNA damaging agents and/or inhibitors, cells were washed once with RPMI 1640 and resuspended in 1 ml culture media at a concentration of less than 5 × 10^5/ ml. Cells were stained with 20 µM of DRAQ7 and incubated at 37 °C for 10 min before FACS Calibur cytometer analysis. Fluorescent signals were amplified using linear mode. Cell cycle analysis was performed either by staining DRAQ7 or Propidium Iodide (PI). Cells were stained with 20 µM of DRAQ7 and incubated at 37 °C for 10 min before analysis on a FACSCalibur cytometer. Propidium Iodide (PI, excited with 488 nm laser, collected with 585/52 bandpass filter) was used in the large-scale experiments. Samples were then fixed with 70% EtOH following the viability assay and stored at 4 °C overnight before the experiment. After fixation with 70% EtOH (added drop-wise) for 24 h, samples were centrifuged into the pellet and then washed twice with ice-cold PBS. The supernatant was discarded and pellets were resuspended in 100 µl of RNase A (100 µg/ml) and 400 µl of PI ([…] in PBS). Analysis of flow cytometry data was performed using FlowJo software. Untreated, unstained cells were used as a negative control to determine the location of viable cells on the dot plots. Events below a threshold size were interpreted as cellular debris and were removed from the dataset, leaving a whole cell population.

[3] = tested on: MDA-MB-231 breast cancer cell line; assay: CCK8 cell viability assay, MDA-MB-231; assay type: cell-based, human; settings: MK2.III 1 µM or etoposide 150 µM alone, 24 h
Experimental: (§1) To assess the effect of MK2.III kinase inhibitor and the etoposide (VP-16) on the viability of different cancer cell lines, cells were seeded in 96-well plates in a concentration of 5000 cells per well. After 12 h, etoposide and 1 μM MK2.III diluted in culture media were added into the wells for 24 h. NCI-H69 cells were exposed to a series of etoposide concentrations from 20 μM to 150 μM. MDA-MB-231, SW 620, and SW 480 cell lines were incubated with 150 μM etoposide. After treatment, 10 μL of the CCK-8 reagent (96992, Sigma) was added to each well for 1 h followed by optical density measurement at 450 nm using hybrid plate reader Synergy H1.

[4] = tested on: NCI-H69 xenograft; assay: Tumor (xenograft) suppression with combination chemotherapy in SCID mice; assay type: in vivo; settings: for Tumor Volume (mm^3) median (25th and 75th quartile): VP-16 12 mg/kg
Experimental: To establish the most suitable xenograft model for the main experiment we used two mouse lines – BALB/c Nude and SCID (both female, 6 weeks, n = 20, Charles River). Both mouse lines were injected with NCI-H69 cancer cells (xenograft). Before injection, cells were grown at 37 °C in RPMI-1640 medium containing 10% FBS and pen/strep. Cells were mixed with Matrigel (1:1) and depending on the group 5 × 10^6 or 10 × 10^6 cells were injected into a mouse subcutaneously along the spine to the level of the left scapula. Mice were divided into 4 groups: (1) 5 × 10^6 NCI-H69 SCID (n = 5); (2) 5 × 10^6 NCI-H69 Nude (n = 5); (3) 10 × 10^6 NCI-H69 SCID (n = 5); and (4) 10 × 10^6 NCI-H69 Nude (n = 5).
The main experiment (injection of the drugs) took place after the tumor growth was established. The tumor growth in mice following the injection of cells was monitored twice a week and upon reaching the volume of ~ 100 mm^3, animals were randomized into 5 groups (12 female SCID mice in each group). The drug treatment was performed as follows: the first group was a control and received a placebo in the form of PBS (tumor volume 95 ± 38 mm^3); the second group received 12 mg/kg of Etoposide (tumor volume 101 ± 51 mm^3); the third group was injected with 4 mg/kg of MK2.III (tumor volume 105 ± 44 mm^3); fourth and fifth groups were injected with 12 mg/kg of Etoposide and 4 mg/kg or 2 mg/kg of MK2.III (tumor volumes 112 ± 57 and 107 ± 49 mm^3 respectively). Drugs were injected intraperitoneally daily. Etoposide was injected 3 days after the randomization into groups and MK2.III was administered for 28 days. Tumor growth/suppression was measured using calipers every 3–4 days for the duration of the 28-day treatment and the tumor volume was calculated as follows:[…],
Antitumor properties of drugs in the test group were determined based on the slowing of the tumor growth or tumor volume compared with the control group receiving PBS. Animal welfare was monitored throughout the study period to ensure that animals in distress were euthanized by carbon dioxide asphyxiation. All the animals were also euthanized by carbon dioxide asphyxiation following the completion of the study.
Descriptive statistics were used to summarize the tumor size and data reported as medians and 25th and 75th quartiles. Wilcoxon sum rank test was used to investigate the effects of the treatments on tumor growth. […] Statistical analyses were performed on the SigmaPlot 11.0 software.

[5] = tested on: NCI-H69 cells; assay: CCK8-based cell viability assay, NCI-H69; parameters: species or system human; settings: 24 h
Experimental: as §1

[6] = tested on: SW620 colorectal cancer cell line; assay: CCK8 cell viability assay, SW620; assay type: cell-based, human; settings: MK2.III 1 µM or etoposide 150 µM alone, 24 h
Experimental: as §1

[7] = tested on: SW480 colorectal cancer cell line; assay: CCK8 cell viability assay, SW480; assay type: cell-based, human; settings: etoposide 150 µM alone, 24 h
Experimental: as §1

SMILES: COc1cc([C@@H]2c3cc4c(cc3[C@@H](O[C@@H]3O[C@@H]5CO[C@@H](C)O[C@H]5[C@H](O)[C@H]3O)[C@H]3COC(=O)[C@H]23)OCO4)cc(OC)c1O [VP-16 (Etoposide), etoposide]
- Effect on cell cycle profile, single agent [1]: G2 cell cycle arrest
- viability at 10 µM ([2]; Homo sapiens, NCI-H69, Table 1 dose response, agent alone 10 µM, 48 h, read-out: Viable cells (%)): 75.7%
- viability at 20 µM ([2]; Homo sapiens, NCI-H69, Table 1 dose response, agent alone 20 µM, 48 h, read-out: Viable cells (%)): 76.8%
- viability at 50 µM ([2]; Homo sapiens, NCI-H69, Table 1 dose response, agent alone 50 µM, 48 h, read-out: Viable cells (%)): 65.2%
- viability at 100 µM ([2]; Homo sapiens, NCI-H69, Table 1 dose response, agent alone 100 µM, 48 h, read-out: Viable cells (%)): 61.3%
- viability at 150 µM ([2]; Homo sapiens, NCI-H69, Table 1 dose response, agent alone 150 µM, 48 h, read-out: Viable cells (%)): 55.4%
- viability at 20 µM ([2]; Homo sapiens, NCI-H69, Table 2, VP-16 20 µM, alone or with MK2.III 1.0 µM or SB203580 2.5 µM, read-out: Viable cells (%)): 57.3%
- viability at 50 µM ([2]; Homo sapiens, NCI-H69, Table 2, VP-16 50 µM, alone or with MK2.III 1.0 µM or SB203580 2.5 µM, read-out: Viable cells (%)): 46.4%
- viability at 100 µM ([2]; Homo sapiens, NCI-H69, Table 2, VP-16 100 µM, alone or with MK2.III 1.0 µM or SB203580 2.5 µM, read-out: Viable cells (%)): 45.4%
- viability at 150 µM ([2]; Homo sapiens, NCI-H69, Table 2, VP-16 150 µM, alone or with MK2.III 1.0 µM or SB203580 2.5 µM, read-out: Viable cells (%)): 37.5%
- Effect of single agent on viability [3]: did not affect the viability
- Difference in tumor size versus control ([4]; at any checkpoint, etoposide 12 mg/kg, MK2.III 4 mg/kg, or etoposide + MK2.III 2 mg/kg): no significant difference
- Tumor Volume (mm^3) median (25th and 75th quartile) ([4]; day 11 upon treatment, MK2.III 4 mg/kg IP daily): 556(360;839) mm^3
- Tumor Volume (mm^3) median (25th and 75th quartile) ([4]; day 18 upon treatment, MK2.III 4 mg/kg IP daily): 1219 (995;1387)^*** mm^3
- Tumor Volume (mm^3) median (25th and 75th quartile) ([4]; day -1 upon treatment (baseline), MK2.III 4 mg/kg IP): 93.5 (66;125) mm^3
- Percentage of surviving cells ([5]; etoposide 20 µM): 72%
- Percentage of surviving cells ([5]; etoposide 150 µM): 36%
- Decrease of viability by single agent [6]: 50%
- Decrease of viability by single agent [7]: 65%

SMILES: C[S+]([O-])c1ccc(-c2nc(-c3ccncc3)c(-c3ccc(F)cc3)[nH]2)cc1 (stereo not shown) [SB203580]
- viability at 0.321 µM ([2]; Homo sapiens, NCI-H69, Table 1 dose response, agent alone 0.321 µM (lowest dose), 48 h, read-out: Viable cells (%)): 89%
- viability at 0.626 µM ([2]; Homo sapiens, NCI-H69, Table 1 dose response, agent alone 0.626 µM, 48 h, read-out: Viable cells (%)): 89.8%
- viability at 1.25 µM ([2]; Homo sapiens, NCI-H69, Table 1 dose response, agent alone 1.25 µM, 48 h, read-out: Viable cells (%)): 89%
- viability at 2.5 µM ([2]; Homo sapiens, NCI-H69, Table 1 dose response, agent alone 2.5 µM, 48 h, read-out: Viable cells (%)): 89.4%
- viability at 5 µM ([2]; Homo sapiens, NCI-H69, Table 1 dose response, agent alone 5.0 µM (highest dose), 48 h, read-out: Viable cells (%)): 85.1%
- Effect on NCI-H69 cell viability compared to the DMSO control ([2]; inhibitor alone at 2.5 µM): did not affect
